Measured values from patent US8986995B2, “Methods of deriving differentiated cells from stem cells” (International Stem Cell Corporation, priority 2008, dated 2015).
“Also recorded” adds a separate entry of the source.

Columns and labels:
hpSC = experiment: Proportion of DE derived from hpSC, HDAC inhibitor pretreatment versus simultaneous application with Activin A; assay type: cell-based, human; conditions: for enhancement in the proportion of DE produced from hpSC: applied at the same time with Activin A
hpSC line 8 p = experiment: Flow cytometry for CXCR4-positive definitive endoderm cells after differentiation, line 8 p; assay type: cell-based, human; conditions: TSA pretreatment
Description: (§1) Cell culture. Undifferentiated hpSC and hESC were maintained on mouse embryo fibroblast feeder layers in KnockOut DMEM/F12 (Invitrogen) supplemented with 15% KnockOut serum replacement (Invitrogen), 0.05 mM nonessential amino acids (NEAA) (Invitrogen), 2 mM Glutamax-I (Invitrogen), penicillin/streptomycin (Invitrogen), 55 μM 2-mercapthoethonol (Invitrogen), 5 ng/ml recombinant human FGF-basic (PeproTech) and 20 ng/ml recombinant human activin A (R&D Systems); for TSA-pretreatment culture medium was supplemented with 100 nM TSA (Sigma) for 24 hours. Cultures were manually passaged at 1:4-1:6 split ratio every 5-7 days. Differentiation was carried out in RPMI 1640 (Invitrogen) supplemented with Glutamax-I, penicillin/streptomycin, 0.5 mg/ml human serum albumin (Sigma), 100 ng/ml recombinant human Activin A, 75 ng/ml recombinant mouse Wnt3a (R&D Systems) for the first 24 hours only. For subsequent days of differentiation media was RPMI 1640 supplemented with 0.2% human AB serum (Fisher BioReagents) and 100 ng/ml recombinant human Activin A. Before initiating differentiation, stem cells were given a brief wash in DPBS (HyClone). […]
(§2) Flow cytometry. […] Flow cytometry data were acquired on a Beckton Dickinson FACS Caliber and analyzed using FACSDiva software (BD Bioscience).

hpSC line 6 p = experiment: Flow cytometry for CXCR4-positive definitive endoderm cells after differentiation, line 6 p; assay type: cell-based, human; conditions: TSA pretreatment
Description: as §1, §2

[1] = system: mouse embryonic stem cells; conditions: cited from earlier work
[2] = system: LLC-6p parthenogenetic stem cell line; experiment: Immunostaining of definitive endoderm markers, Example 1 protocol; assay type: cell-based, human; conditions: 100 μM TSA pretreatment, then D1, D2, D3 media
Description: These endoderm-like cells were derived according a protocol of various culture media (D1-Activin A+Wnt3a; D2-Activin A; D3—Activin A; see Tables 1-4, below). However, prior to culture, the parthenogenetic cells were exposed to a pretreatment agent (trichostatin A (TSA)).
Accordingly, a protocol for generating definitive endoderm cells is as follows: (i) addition of 100 μM trichostatin A (TSA) to culture medium (phSC culture medium+TSA) and culture cells for about 24 hours; (ii) cultivation of the cells in phSC culture medium+TSA for about 24 hours; (iii) remove TSA from the culture (i.e., cultivation of the cells in culture medium D1 for about 24 hours); (iv) cultivation of the cells in culture medium D2 for about 24 hours; and (v) cultivation of the cells in culture medium D3 for about 24 hours.

hpSC line 2 p = experiment: Flow cytometry for CXCR4-positive definitive endoderm cells after differentiation, line 2 p; assay type: cell-based, human; conditions: TSA pretreatment
Description: as §1, §2

[3] = system: human parthenogenetic stem cells (hpSC); experiment: Flow cytometry for CXCR4-positive cells, hpSC differentiation to definitive endoderm; assay type: cell-based; conditions: all 4 hpSC lines, CXCR4-positive cells by flow cytometry
Description: as §1
Flow cytometry. […] Flow cytometry data were acquired on a Beckton Dickinson FACS Caliber and analyzed using FACSDiva software (BD Bioscience). […]

[4] = system: human parthenogenetic stem cells (hpSC); experiment: SOX17 immunostaining of differentiated hpSC; assay type: cell-based
Description: (§3) Cell culture. Undifferentiated hpSC and hESC were maintained on mouse embryo fibroblast feeder layers in KnockOut DMEM/F12 (Invitrogen) supplemented with 15% KnockOut serum replacement (Invitrogen), 0.05 mM nonessential amino acids (NEAA) (Invitrogen), 2 mM Glutamax-I (Invitrogen), penicillin/streptomycin (Invitrogen), 55 μM 2-mercapthoethonol (Invitrogen), 5 ng/ml recombinant human FGF-basic (PeproTech) and 20 ng/ml recombinant human activin A (R&D Systems); for TSA-pretreatment culture medium was supplemented with 100 nM TSA (Sigma) for 24 hours. Cultures were manually passaged at 1:4-1:6 split ratio every 5-7 days. Differentiation was carried out in RPMI 1640 (Invitrogen) supplemented with Glutamax-I, penicillin/streptomycin, 0.5 mg/ml human serum albumin (Sigma), 100 ng/ml recombinant human Activin A, 75 ng/ml recombinant mouse Wnt3a (R&D Systems) for the first 24 hours only. For subsequent days of differentiation media was RPMI 1640 supplemented with 0.2% human AB serum (Fisher BioReagents) and 100 ng/ml recombinant human Activin A. Before initiating differentiation, stem cells were given a brief wash in DPBS (HyClone). […] The protocol is divided into two stages: TSA-pretreatment stage (orange color) and DE differentiation stage (green color). […]

[5] = system: human parthenogenetic stem cells (hpSC); experiment: Real-time quantitative PCR of marker gene expression in hpSC; assay type: cell-based
Description: Cell culture. Undifferentiated hpSC and hESC were maintained on mouse embryo fibroblast feeder layers in KnockOut DMEM/F12 (Invitrogen) supplemented with 15% KnockOut serum replacement (Invitrogen), 0.05 mM nonessential amino acids (NEAA) (Invitrogen), 2 mM Glutamax-I (Invitrogen), penicillin/streptomycin (Invitrogen), 55 μM 2-mercapthoethonol (Invitrogen), 5 ng/ml recombinant human FGF-basic (PeproTech) and 20 ng/ml recombinant human activin A (R&D Systems); for TSA-pretreatment culture medium was supplemented with 100 nM TSA (Sigma) for 24 hours. Cultures were manually passaged at 1:4-1:6 split ratio every 5-7 days. Differentiation was carried out in RPMI 1640 (Invitrogen) supplemented with Glutamax-I, penicillin/streptomycin, 0.5 mg/ml human serum albumin (Sigma), 100 ng/ml recombinant human Activin A, 75 ng/ml recombinant mouse Wnt3a (R&D Systems) for the first 24 hours only. For subsequent days of differentiation media was RPMI 1640 supplemented with 0.2% human AB serum (Fisher BioReagents) and 100 ng/ml recombinant human Activin A. Before initiating differentiation, stem cells were given a brief wash in DPBS (HyClone). […] The protocol is divided into two stages: TSA-pretreatment stage (orange color) and DE differentiation stage (green color). TSA-pretreatment is performed against background of the culture conditions that support pluripotency state of the hpSC at time interval from “−24” hours till “0” hours. Differentiation starts from time point “0” hours by applying Activin A- and Wnt3a-signaling and withholding TSA from culture medium. Several markers characteristics of each cell population are listed.
Real-time quantitative PCR. Sample collection, reverse transcription and real-time PCR reactions were as previously described (D'Amour et al, Nat. Biotechnol 23:1534-41, 2005).

hpSC line 15 ph = experiment: Flow cytometry for CXCR4-positive definitive endoderm cells after differentiation, line 15 ph; assay type: cell-based, human; conditions: TSA pretreatment
Description: as §1, §2

undifferentiated hpSC = experiment: Cell death and morphology of undifferentiated hpSC under pretreatment; assay type: cell-based, human; conditions: TSA pretreatment of undifferentiated hpSC
Description: as §3

Compound	enhancement in the proportion of DE produced from hpSC (hpSC)	proportion of DE derived from hpSC (hpSC; pretreatment of hpSC before Activin A)	CXCR-4 (CD184) + [% "Intact" Cells] (hpSC line 8 p; 3 day of differentiation) [%]	CXCR-4 (CD184) + [% "Intact" Cells] (hpSC line 8 p; 4 day of differentiation) [%]	CXCR-4 (CD184) + [% "Intact" Cells] (hpSC line 6 p; 3 day of differentiation) [%]	CXCR-4 (CD184) + [% "Intact" Cells] (hpSC line 6 p; 4 day of differentiation) [%]	effect on pluripotency factors including Nanog [1]	FoxA2 expression by immunostaining [2]	Sox17 expression by immunostaining [2]	CXCR-4 (CD184) + [% "Intact" Cells] (hpSC line 2 p; 3 day of differentiation) [%]	CXCR-4 (CD184) + [% "Intact" Cells] (hpSC line 2 p; 4 day of differentiation) [%]	increase in number of definitive endoderm cells over non-pretreated cultures [3]	relative proportion of SOX17 immunoreactive cells ([4]; after differentiation during 72 hours, TSA-treated versus non treated hpSC cultures)	proportion of SOX17-positive cells ([4]; hpSC pretreated with TSA 24 hours, after 72 hours of differentiation)	brachyury gene expression during differentiation ([5]; TSA-pretreated versus non TSA pretreated cultures, 24 h and 48 h of differentiation)	brachyury expression after pretreatment ([5]; after 24 hours TSA pretreatment, before start of differentiation (0h))	expression of pluripotency genes OCT4 and SOX2 and DE genes CER1, SOX17, CXCR4 ([5]; after TSA pretreatment, before start of differentiation (0h))	CXCR-4 (CD184) + [% "Intact" Cells] (hpSC line 15 ph; 3 day of differentiation) [%]	CXCR-4 (CD184) + [% "Intact" Cells] (hpSC line 15 ph; 4 day of differentiation) [%]	cell death and cell morphology (undifferentiated hpSC)
CCCC(=O)[O-].[Na+] [NaB, sodium butyrate]	did not produce any enhancement	increased the proportion of DE																		
CC(/C=C/C(=O)NO)=C\[C@@H](C)C(=O)c1ccc(N(C)C)cc1 [TSA, trichostatin A]	did not produce any enhancement		67.1	76.7	61.2	67.6	suppression of important pluripotency factors	overwhelming majority of cells expressed FoxA2	majority of cells expressed Sox17	61.0	58.9	1.4-1.8 fold	most numerous	greater than 70%	higher peak level of brachyury gene expression at 24 h and sharper kinetic of reduced expression at 48 h; also recorded: significantly higher levels of brachyury transcripts	slight upregulation of brachyury expression	no significant changes	24.1	34.2	some cell death as well as changes in cell morphology
